Like-named read-outs stand apart in the source and are kept apart here.
Assays:
[1] = Single dose pharmacokinetics of VRx-3996 in patients, serum, cycle 1 day 1; assay type: in vivo, humans; conditions: human, po
Procedure: Patients enrolled in study were administered oral nanatinostat and valganciclovir at predefined doses. […] 8.1 software.

HDAC11 = biological target: T1, HDAC11 (Homo sapiens, UniProt Q96DB2); assay: in vitro HDAC inhibition assay (fluorescence), HDAC11; assay type: biochemical; conditions: HDAC11
T1 sequence (Q96DB2 1-347): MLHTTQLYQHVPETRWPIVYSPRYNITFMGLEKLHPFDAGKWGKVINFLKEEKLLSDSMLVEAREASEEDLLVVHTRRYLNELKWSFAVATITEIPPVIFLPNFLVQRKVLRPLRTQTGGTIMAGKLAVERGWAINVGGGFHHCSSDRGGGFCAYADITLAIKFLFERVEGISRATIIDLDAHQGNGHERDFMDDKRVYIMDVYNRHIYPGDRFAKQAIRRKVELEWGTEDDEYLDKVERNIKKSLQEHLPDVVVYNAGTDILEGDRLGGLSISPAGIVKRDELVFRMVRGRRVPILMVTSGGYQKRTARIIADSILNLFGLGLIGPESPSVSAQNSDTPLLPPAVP
Procedure: (§1) Briefly, all of the compounds are dissolved in DMSO. A series of dilutions of the compounds were prepared with 10% DMSO in HDAC assay buffer and 5 μl of the dilution was added to a 50 μl reaction so that the final concentration of DMSO is 1% in all of reactions. The compounds were pre-incubated in duplicate at RT for 1 hour in a mixture containing HDAC assay buffer, 5 μg BSA, HDAC enzyme (see Table 7) and a the particular HDACi. After 1 hour, the enzymatic reactions were initiated by the addition of HDAC substrate (BPS Bioscience) to a final concentration of 10 μM or 2 μM. The enzymatic reaction proceeded for 30 minutes at 37° C.
(§2) HDAC activity assays were performed in duplicates at each concentration. The fluorescent intensity data were analyzed using the computer software, Graphpad Prism. In the absence of the compound, the fluorescent intensity (Ft) in each data set was defined as 100% activity. In the absence of HDAC, the fluorescent intensity (Fb) in each data set was defined as 0% activity. The percent activity in the presence of each compound was calculated according to the following equation: % activity=(F−Fb)/(Ft−Fb), where F=the fluorescent intensity in the presence of the compound. […]

HDAC7 = biological target: T2, HDAC7 (Homo sapiens, UniProt Q8WUI4); assay: in vitro HDAC inhibition assay (fluorescence), HDAC7; assay type: biochemical; conditions: HDAC7
T2 sequence (Q8WUI4 1-952): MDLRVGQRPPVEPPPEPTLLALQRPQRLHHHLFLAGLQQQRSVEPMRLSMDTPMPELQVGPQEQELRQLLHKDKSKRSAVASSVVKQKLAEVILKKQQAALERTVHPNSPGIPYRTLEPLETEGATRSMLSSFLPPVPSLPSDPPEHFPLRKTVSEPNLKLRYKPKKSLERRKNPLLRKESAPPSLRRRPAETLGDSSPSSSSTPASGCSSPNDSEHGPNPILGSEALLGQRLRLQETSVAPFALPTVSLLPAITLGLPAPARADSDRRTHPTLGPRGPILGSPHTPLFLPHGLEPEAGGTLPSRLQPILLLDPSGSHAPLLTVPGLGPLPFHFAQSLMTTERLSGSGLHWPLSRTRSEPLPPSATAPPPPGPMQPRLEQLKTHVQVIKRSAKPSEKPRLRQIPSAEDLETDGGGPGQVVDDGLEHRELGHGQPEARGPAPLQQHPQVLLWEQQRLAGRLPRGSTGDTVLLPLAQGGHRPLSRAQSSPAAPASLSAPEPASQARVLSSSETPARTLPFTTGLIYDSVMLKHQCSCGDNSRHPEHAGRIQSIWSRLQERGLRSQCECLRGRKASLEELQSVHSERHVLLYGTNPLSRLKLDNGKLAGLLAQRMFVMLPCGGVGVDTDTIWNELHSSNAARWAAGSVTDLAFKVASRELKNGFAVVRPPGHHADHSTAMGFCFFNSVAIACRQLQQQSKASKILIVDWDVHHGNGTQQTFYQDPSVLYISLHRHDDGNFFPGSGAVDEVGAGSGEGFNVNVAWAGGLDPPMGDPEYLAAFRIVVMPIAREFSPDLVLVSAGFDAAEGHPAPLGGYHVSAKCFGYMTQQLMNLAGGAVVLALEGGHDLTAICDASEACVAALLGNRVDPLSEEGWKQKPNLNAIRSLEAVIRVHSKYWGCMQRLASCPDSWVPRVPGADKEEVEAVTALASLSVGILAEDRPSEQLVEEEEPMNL
Procedure: as §1, §2

O=C(NO)c1cnc(N2CC3C(C2)C3NCc2ccc3cc(F)ccc3n2)nc1 (stereo not drawn) [Nstat, 2-(6-{[(6-Fluoroquinolin-2-yl)methyl]amino}-3-azabicyclo[3.1.0]hex-3-yl)-N-hydroxypyrimidine-5-carboxamide]
AUC ([1]; Treatment A = 5 mg VRx-3996 p.o. and 450 mg Valganciclovir p.o., single dose, N=1, read-out: AUC, geometric mean): 117 ng·h/mL | half-life ([1]; Treatment A = 5 mg VRx-3996 p.o. and 450 mg Valganciclovir p.o., single dose, N=1, read-out: Half-Life, geometric mean (converted)): 2.18 h | AUC(0-t) ([1]; Treatment A = 5 mg VRx-3996 p.o. and 450 mg Valganciclovir p.o., single dose, N=4, read-out: AUClast, geometric mean): 40.5 ng·h/mL | Cmax ([1]; Treatment A = 5 mg VRx-3996 p.o. and 450 mg Valganciclovir p.o., single dose, N=4, read-out: Cmax, geometric mean): 18.5 ng/mL | Tmax ([1]; Treatment A = 5 mg VRx-3996 p.o. and 450 mg Valganciclovir p.o., single dose, N=4, read-out: Tmax, median (range)): 3 h | AUC ([1]; Treatment B = 10 mg VRx-3996 p.o. and 450 mg Valganciclovir p.o., single dose, N=1, read-out: AUC, geometric mean): 317 ng·h/mL | half-life ([1]; Treatment B = 10 mg VRx-3996 p.o. and 450 mg Valganciclovir p.o., single dose, N=1, read-out: Half-Life, geometric mean (converted)): 1.17 h | AUC(0-t) ([1]; Treatment B = 10 mg VRx-3996 p.o. and 450 mg Valganciclovir p.o., single dose, N=9, read-out: AUClast, geometric mean): 165 ng·h/mL | Cmax ([1]; Treatment B = 10 mg VRx-3996 p.o. and 450 mg Valganciclovir p.o., single dose, N=9, read-out: Cmax, geometric mean): 62.6 ng/mL | Tmax ([1]; Treatment B = 10 mg VRx-3996 p.o. and 450 mg Valganciclovir p.o., single dose, N=9, read-out: Tmax, median (range)): 2 h | AUC ([1]; Treatment C = 10 mg VRx-3996 p.o. and 900 mg Valganciclovir p.o., single dose, N=4, read-out: AUC, geometric mean): 322 ng·h/mL | half-life ([1]; Treatment C = 10 mg VRx-3996 p.o. and 900 mg Valganciclovir p.o., single dose, N=4, read-out: Half-Life, geometric mean (converted)): 1.67 h | AUC(0-t) ([1]; Treatment C = 10 mg VRx-3996 p.o. and 900 mg Valganciclovir p.o., single dose, N=6, read-out: AUClast, geometric mean): 227 ng·h/mL | Cmax ([1]; Treatment C = 10 mg VRx-3996 p.o. and 900 mg Valganciclovir p.o., single dose, N=6, read-out: Cmax, geometric mean): 78.9 ng/mL | Tmax ([1]; Treatment C = 10 mg VRx-3996 p.o. and 900 mg Valganciclovir p.o., single dose, N=6, read-out: Tmax, median (range)): 1 h | half-life ([1]; humans, oral nanatinostat with valganciclovir, read-out: T1/2 (converted)): ~2 h | IC50 (HDAC11): 2800 nM | IC50 (HDAC7): 1600 nM

Source: patent US20240058347A1, “DOSAGES FOR HDAC TREATMENT WITH REDUCED SIDE EFFECTS” (VIRACTA THERAPEUTICS, INC., priority 2019, published 2024)
